Data as given in patent publication US10202361B2, “Pyridazinones as herbicides” (E I DU PONT DE NEMOURS AND COMPANY, priority 2014, dated 2019).
Read-outs that look alike come from different tables or passages of the source.

Columns and labels:
Format in all cases: in vivo
[1] = system: barnyardgrass (Echinochloa crus-galli); assay: Test A pre-/postemergence greenhouse herbicide test; conditions: Echinochloa crus-galli, 240 h, 0 to 100 scale (0 no effect, 100 complete control), approx. 10 d, read-out: Plant response rating, Barnyardgrass; for pest or weed control at 125 g/ha: 125 g ai/ha; for pest or weed control at 500 g/ha: 500 g ai/ha
In short: (§1)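 Injury was scored visually on a 0 to 100 scale, where 0 meant no effect and 100 complete control, relative to untreated plants after about 10 d in the greenhouse. Preemergence treatment was a directed soil spray on seeded loam–sand; postemergence spray went onto one- to two-leaf plants.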

[2] = system: corn (Zea mays); assay: as above; conditions: Zea mays, 240 h, 0 to 100 scale (0 no effect, 100 complete control), approx. 10 d; for Corn plant response rating (crop injury, 0 = no effect, 100 = complete kill) at 125 g/ha: 125 g ai/ha; for Corn plant response rating (crop injury, 0 = no effect, 100 = complete kill) at 500 g/ha: 500 g ai/ha
In short: as §1

[3] = system: crabgrass, Large (large crabgrass, Digitaria sanguinalis); assay: as above; conditions: Digitaria sanguinalis, 240 h, 0 to 100 scale (0 no effect, 100 complete control), approx. 10 d, read-out: Plant response rating, Crabgrass, Large; for pest or weed control at 125 g/ha: 125 g ai/ha; for pest or weed control at 500 g/ha: 500 g ai/ha
In short: as §1

[4] = system: foxtail, giant (giant foxtail, Setaria faberii); assay: as above; conditions: Setaria faberi, 240 h, 0 to 100 scale (0 no effect, 100 complete control), approx. 10 d, read-out: Plant response rating, Foxtail, Giant; for pest or weed control at 125 g/ha: 125 g ai/ha; for pest or weed control at 500 g/ha: 500 g ai/ha
In short: as §1

[5] = system: morningglory (Ipomoea spp.); assay: as above; conditions: Ipomoea, 240 h, 0 to 100 scale (0 no effect, 100 complete control), approx. 10 d, read-out: Plant response rating, Morningglory; for pest or weed control at 125 g/ha: 125 g ai/ha; for pest or weed control at 500 g/ha: 500 g ai/ha
In short: as §1

[6] = system: pigweed (Amaranthus retroflexus); assay: as above; conditions: Amaranthus retroflexus, 240 h, 0 to 100 scale (0 no effect, 100 complete control), approx. 10 d, read-out: Plant response rating, Pigweed; for pest or weed control at 125 g/ha: 125 g ai/ha; for pest or weed control at 500 g/ha: 500 g ai/ha
In short: as §1

[7] = system: velvetleaf (Abutilon theophrasti); assay: as above; conditions: Abutilon theophrasti, 240 h, 0 to 100 scale (0 no effect, 100 complete control), approx. 10 d, read-out: Plant response rating, Velvetleaf; for pest or weed control at 125 g/ha: 125 g ai/ha; for pest or weed control at 500 g/ha: 500 g ai/ha
In short: as §1

[8] = system: wheat (Triticum aestivum); assay: as above; conditions: Triticum aestivum, 240 h, 0 to 100 scale (0 no effect, 100 complete control), approx. 10 d, read-out: Plant response rating, Wheat; for plant injury at 125 g/ha: 125 g ai/ha; for plant injury at 500 g/ha: 500 g ai/ha
In short: as §1

[9] = system: ragweed (common ragweed, Ambrosia elatior); assay: Test C pre-/postemergence greenhouse herbicide test; conditions: Ambrosia artemisiifolia, Ragweed, read-out: Plant response rating; for pest or weed control at 31 g/ha: 31 g ai/ha; for pest or weed control at 62 g/ha: 62 g ai/ha; for pest or weed control at 125 g/ha: 125 g ai/ha; for pest or weed control at 250 g/ha: 250 g ai/ha
In short: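 Greenhouse pre- and postemergence screen: compounds in a non-phytotoxic solvent mix plus surfactant were applied to soil/sand-sown seeds or to 1- to 4-leaf plants. Visual rating 13–15 d later, 0 (no effect) to 100 (complete control).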

Cc1cc(Oc2ccnc(C(F)(F)F)c2)nn(-c2ccc(C(F)(F)F)cc2)c1=O [Compound 6, 4-methyl-2-[4-(trifluoromethyl)phenyl]-6-[[2-(trifluoromethyl)-4-pyridinyl]oxy]-3(2H)-pyridazinone]
pest or weed control at 125 g/ha ([1]; post-emergence, Postemergence): 50% | pest or weed control at 500 g/ha ([1]; post-emergence, Postemergence): 90% | pest or weed control at 125 g/ha ([1]; pre-emergence, Preemergence): 40% | pest or weed control at 500 g/ha ([1]; pre-emergence, Preemergence): 80% | Corn plant response rating (crop injury, 0 = no effect, 100 = complete kill) at 125 g/ha ([2]; post-emergence, Postemergence): 40% | Corn plant response rating (crop injury, 0 = no effect, 100 = complete kill) at 500 g/ha ([2]; post-emergence, Postemergence): 50% | Corn plant response rating (crop injury, 0 = no effect, 100 = complete kill) at 125 g/ha ([2]; pre-emergence, Preemergence): 10% | Corn plant response rating (crop injury, 0 = no effect, 100 = complete kill) at 500 g/ha ([2]; pre-emergence, Preemergence): 20% | pest or weed control at 125 g/ha ([3]; post-emergence, Postemergence): 80% | pest or weed control at 500 g/ha ([3]; post-emergence, Postemergence): 90% | pest or weed control at 125 g/ha ([3]; pre-emergence, Preemergence): 100% | pest or weed control at 500 g/ha ([3]; pre-emergence, Preemergence): 100% | pest or weed control at 125 g/ha ([4]; post-emergence, Postemergence): 80% | pest or weed control at 500 g/ha ([4]; post-emergence, Postemergence): 100% | pest or weed control at 125 g/ha ([4]; pre-emergence, Preemergence): 100% | pest or weed control at 500 g/ha ([4]; pre-emergence, Preemergence): 100% | pest or weed control at 125 g/ha ([5]; post-emergence, Postemergence): 80% | pest or weed control at 500 g/ha ([5]; post-emergence, Postemergence): 100% | pest or weed control at 125 g/ha ([5]; pre-emergence, Preemergence): 80% | pest or weed control at 500 g/ha ([5]; pre-emergence, Preemergence): 90% | pest or weed control at 125 g/ha ([6]; post-emergence, Postemergence): 100% | pest or weed control at 500 g/ha ([6]; post-emergence, Postemergence): 100% | pest or weed control at 125 g/ha ([6]; pre-emergence, Preemergence): 100% | pest or weed control at 500 g/ha ([6]; pre-emergence, Preemergence): 100% | pest or weed control at 125 g/ha ([7]; post-emergence, Postemergence): 100% | pest or weed control at 500 g/ha ([7]; post-emergence, Postemergence): 100% | pest or weed control at 125 g/ha ([7]; pre-emergence, Preemergence): 70% | pest or weed control at 500 g/ha ([7]; pre-emergence, Preemergence): 80% | plant injury at 125 g/ha ([8]; post-emergence, Postemergence): 40% | plant injury at 500 g/ha ([8]; post-emergence, Postemergence): 50% | plant injury at 125 g/ha ([8]; pre-emergence, Preemergence): 10% | plant injury at 500 g/ha ([8]; pre-emergence, Preemergence): 30% | pest or weed control at 31 g/ha ([9]; post-emergence, Postemergence): 50% | pest or weed control at 62 g/ha ([9]; post-emergence, Postemergence): 55% | pest or weed control at 125 g/ha ([9]; post-emergence, Postemergence): 80% | pest or weed control at 250 g/ha ([9]; post-emergence, Postemergence): 80%

Cc1cc(=O)n(-c2ccc(F)cc2)nc1Oc1ccnc(C(F)(F)F)c1 [Compound 14, 2-(4-fluorophenyl)-5-methyl-6-[[2-(trifluoromethyl)-4-pyridinyl]oxy]-3 (2H)-pyridazinone]
pest or weed control at 125 g/ha ([1]; post-emergence, Postemergence): 80% | pest or weed control at 500 g/ha ([1]; post-emergence, Postemergence): 90% | pest or weed control at 125 g/ha ([1]; pre-emergence, Preemergence): 70% | pest or weed control at 500 g/ha ([1]; pre-emergence, Preemergence): 100% | Corn plant response rating (crop injury, 0 = no effect, 100 = complete kill) at 125 g/ha ([2]; post-emergence, Postemergence): 50% | Corn plant response rating (crop injury, 0 = no effect, 100 = complete kill) at 500 g/ha ([2]; post-emergence, Postemergence): 70% | Corn plant response rating (crop injury, 0 = no effect, 100 = complete kill) at 125 g/ha ([2]; pre-emergence, Preemergence): 0% | Corn plant response rating (crop injury, 0 = no effect, 100 = complete kill) at 500 g/ha ([2]; pre-emergence, Preemergence): 50% | pest or weed control at 125 g/ha ([3]; post-emergence, Postemergence): 90% | pest or weed control at 500 g/ha ([3]; post-emergence, Postemergence): 90% | pest or weed control at 125 g/ha ([3]; pre-emergence, Preemergence): 90% | pest or weed control at 500 g/ha ([3]; pre-emergence, Preemergence): 90% | pest or weed control at 125 g/ha ([4]; post-emergence, Postemergence): 90% | pest or weed control at 500 g/ha ([4]; post-emergence, Postemergence): 90% | pest or weed control at 125 g/ha ([4]; pre-emergence, Preemergence): 90% | pest or weed control at 500 g/ha ([4]; pre-emergence, Preemergence): 90% | pest or weed control at 125 g/ha ([5]; post-emergence, Postemergence): 90% | pest or weed control at 500 g/ha ([5]; post-emergence, Postemergence): 100% | pest or weed control at 125 g/ha ([5]; pre-emergence, Preemergence): 80% | pest or weed control at 500 g/ha ([5]; pre-emergence, Preemergence): 100% | pest or weed control at 125 g/ha ([6]; post-emergence, Postemergence): 100% | pest or weed control at 500 g/ha ([6]; post-emergence, Postemergence): 100% | pest or weed control at 125 g/ha ([6]; pre-emergence, Preemergence): 100% | pest or weed control at 500 g/ha ([6]; pre-emergence, Preemergence): 100% | pest or weed control at 125 g/ha ([7]; post-emergence, Postemergence): 80% | pest or weed control at 500 g/ha ([7]; post-emergence, Postemergence): 90% | pest or weed control at 125 g/ha ([7]; pre-emergence, Preemergence): 30% | pest or weed control at 500 g/ha ([7]; pre-emergence, Preemergence): 100% | plant injury at 125 g/ha ([8]; post-emergence, Postemergence): 40% | plant injury at 500 g/ha ([8]; post-emergence, Postemergence): 70% | plant injury at 125 g/ha ([8]; pre-emergence, Preemergence): 10% | plant injury at 500 g/ha ([8]; pre-emergence, Preemergence): 60% | pest or weed control at 31 g/ha ([9]; post-emergence, Postemergence): 50% | pest or weed control at 62 g/ha ([9]; post-emergence, Postemergence): 50% | pest or weed control at 125 g/ha ([9]; post-emergence, Postemergence): 60% | pest or weed control at 250 g/ha ([9]; post-emergence, Postemergence): 70% | pest or weed control at 31 g/ha ([9]; pre-emergence, Preemergence): 5% | pest or weed control at 62 g/ha ([9]; pre-emergence, Preemergence): 15% | pest or weed control at 125 g/ha ([9]; pre-emergence, Preemergence): 30% | pest or weed control at 250 g/ha ([9]; pre-emergence, Preemergence): 55%
